Measured values as given in the supplement of paper PMC10331698.
± gives the standard deviation of the averaged measurements.

Legend:
Assay in all cases: level (log10 ratio to DMSO vehicle control); higher = higher biomarker level / cell amount than vehicle control
[1] = compound: FC(F)(F)C(F)(F)C(F)(F)CC1CO1 [1H,1H-Heptafluorobutyl epoxide]; conditions: in DMSO
Method: (§1)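 BioMAP Diversity Plus panel of 12 human primary cell co-culture systems (3C, 4H, LPS, SAg, BT, BF4T, BE3C, CASM3C, HDF3CGF, KF3CT, MyoF, Mphg). Compounds were added 1 h before stimulation and left for 24 h (MyoF 48 h; BT 72 h for soluble read-outs or 6 d for IgG). Biomarkers were read by ELISA, cytotoxicity by SRB, PBMC viability and proliferation by Alamar Blue. Each well value was divided by the mean of 8 DMSO control wells on the same plate and log10 transformed; duplicate blinded samples were tested at 4 concentrations.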

[2] = compound: O=S(=O)(O)CCC(F)(F)C(F)(F)C(F)(F)C(F)(F)C(F)(F)C(F)(F)F [6:2 Fluorotelomer sulfonic acid]; conditions: in DMSO
Method: as §1

[3] = compound: C=CC(=O)OCC(F)(F)C(F)(F)C(F)(F)COC(=O)C=C [1H,1H,5H,5H-Perfluoro-1,5-pentanediol diacrylate]; conditions: 6700 nM; in DMSO
Method: as §1

[4] = compound: FC(F)(F)C(F)(F)C(F)(F)C(F)(F)C(F)(F)C(F)(F)CC1CO1 [3-(Perfluorohexyl)-1,2-epoxypropane]; conditions: in DMSO
Method: as §1

[5] = compound: C=C(C)C(=O)OCCC(F)(F)C(F)(F)C(F)(F)C(F)(F)C(F)(F)C(F)(F)F [6:2 Fluorotelomer methacrylate]; conditions: in DMSO
Method: as §1

[6] = compound: O=S(=O)(O)C(F)(F)C(F)(F)C(F)(F)C(F)(F)C(F)(F)C(F)(F)C(F)(F)C(F)(F)C(F)(F)C(F)(F)F [Sodium perfluorodecanesulfonate]; conditions: in DMSO
Method: as §1

[7] = compound: NC(=O)C(F)(F)C(F)(F)C(F)(F)C(F)F; conditions: in DMSO
Method: as §1

Test System	level (log10) ([1]; 6700 nM)	level (log10) ([1]; 20000 nM)	level (log10) ([1]; 60000 nM)	level (log10) ([2]; 6700 nM)	level (log10) ([2]; 20000 nM)	level (log10) ([2]; 60000 nM)	level (log10) [3]	level (log10) ([4]; 6700 nM)	level (log10) ([4]; 20000 nM)	level (log10) ([4]; 60000 nM)	level (log10) ([5]; 6700 nM)	level (log10) ([5]; 20000 nM)	level (log10) ([5]; 60000 nM)	level (log10) ([6]; 1500 nM)	level (log10) ([6]; 4400 nM)	level (log10) ([6]; 13000 nM)	level (log10) ([6]; 40000 nM)	level (log10) ([7]; 6700 nM)	level (log10) ([7]; 20000 nM)	level (log10) ([7]; 60000 nM)
3C:CD142/Tissue Factor	0.034 ± 0.0071	0 ± 0.033	0.0075 ± 0.022	-0.0065 ± 0.029	0.006 ± 0.021	0.0155 ± 0.064	-0.29 ± 0.1	-0.042 ± 0.027	-0.05 ± 0.028	-0.0195 ± 0.029	0.0295 ± 0.0021	0.034 ± 0.013	0.021 ± 0.054	-0.0005 ± 0.04	-0.0075 ± 0.015	0.0205 ± 0.025	-0.0695 ± 0.0078	-0.0025 ± 0.066	0.006 ± 0.033	0.0115 ± 0.036
KF3CT:PAI-I	-0.0145 ± 0.00071	-0.0115 ± 0.018	-0.014 ± 0.0085	0.0025 ± 0.0021	-0.012 ± 0.018	-0.0135 ± 0.0092	0.014 ± 0.0028	0.0145 ± 0.032	0.019 ± 0.0014	0.0195 ± 0.0021	-0.0465 ± 0.018	-0.035 ± 0.016	-0.0535 ± 0.03	-0.0085 ± 0.046	-0.021 ± 0.013	-0.0415 ± 0.0035	-0.0715 ± 0.028	-0.005 ± 0.0042	-0.0085 ± 0.0064	-0.007 ± 0.02
MyoF:PAI-I	-0.005 ± 0.024	-0.0105 ± 0.012	0 ± 0.016	-0.0035 ± 0.0021	-0.011 ± 0.0014	-0.0035 ± 0.015	-0.0055 ± 0.03	0.011 ± 0.0099	-0.0035 ± 0.00071	0.0055 ± 0.0021	-0.0165 ± 0.015	-0.016 ± 0.0028	-0.0165 ± 0.005	0.019 ± 0.02	0.0335 ± 0.029	0.0505 ± 0.0035	0.063 ± 0.0085	-0.0125 ± 0.013	-0.0125 ± 0.0064	0.005 ± 0.018
KF3CT:CD54/ICAM-1	0.003 ± 0.013	-0.012 ± 0.0042	-0.0105 ± 0.025	-0.0095 ± 0.0064	-0.0265 ± 0.0035	-0.037 ± 0.0071	-0.076 ± 0.0042	0.006 ± 0.0071	0.026	0.0085 ± 0.0092	0.006 ± 0.016	-0.014 ± 0.031	-0.0075 ± 0.005	0.0035 ± 0.013	0.018 ± 0.023	0.08 ± 0.013	0.09	-0.0075 ± 0.011	-0.0255 ± 0.005	-0.008 ± 0.0014
HDF3CGF:CXCL9/MIG	-0.03 ± 0.031	-0.03 ± 0.068	-0.062 ± 0.05	-0.013 ± 0.048	-0.0395 ± 0.018	-0.046 ± 0.038	-0.779	0.0095 ± 0.0092	0.0085 ± 0.016	-0.0085 ± 0.013	0.0025 ± 0.019	0.0095 ± 0.00071	0.015 ± 0.0085	-0.0085 ± 0.022	-0.0565 ± 0.00071	0.029 ± 0.0085	0.049 ± 0.014	0.0055 ± 0.00071	-0.0065 ± 0.012	-0.0025 ± 0.0035
3C:CD62E/E-Selectin	-0.011 ± 0.023	0.002 ± 0.013	0.0075 ± 0.0035	-0.021 ± 0.034	0.003 ± 0.048	0.026 ± 0.038	-0.135 ± 0.049	-0.035 ± 0.013	-0.0375 ± 0.005	-0.0415 ± 0.0078	-0.0145 ± 0.015	-0.01 ± 0.033	-0.0135 ± 0.035	0.0005 ± 0.0035	0.002 ± 0.0071	0.0185 ± 0.028	0.057 ± 0.05	-0.0055 ± 0.022	-0.027 ± 0.0014	-0.016 ± 0.018
HDF3CGF:CD54/ICAM-1	-0.0045 ± 0.022	-0.0115 ± 0.04	-0.0215 ± 0.06	-0.0085 ± 0.011	-0.007 ± 0.011	-0.029 ± 0.014	-0.9415 ± 0.0078	-0.01 ± 0.018	-0.0095 ± 0.0092	-0.021 ± 0.034	-0.011 ± 0.0042	0.0035 ± 0.012	0.005 ± 0.0014	-0.0145 ± 0.021	-0.031 ± 0.016	-0.037 ± 0.016	-0.063 ± 0.0057	-0.0045 ± 0.0064	0.0045 ± 0.0035	0.001 ± 0.0071
